Measured values published in patent US11980188B2, “Spiro cyclohexanedione derivates as herbicides” (SYNGENTA PARTICIPATIONS AG, priority 2018, dated 2024).

Key:
Experiment in all cases: Glasshouse herbicide test, pre- and post-emergence, percentage damage
Format in all cases: in vivo
Setaria faberi (SETFA) = conditions: 250 g/h, evaluated after 13 days, percentage damage on five point scale; for SETFA POST: post-emergence; for SETFA PRE: pre-emergence
Method in brief: (§1)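 Spray: 250 g/h, aqueous acetone/water 50:50 + 0.5% Tween 20; pre-em 1 d after sowing, post-em at 8 d. Glasshouse 24/16 °C, 14 h light, 65% RH, watered twice daily. Read % damage at 13 d, scored 1–5 (5=80-100%).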

[1] = test system: Echinochloa crus-galli (ECHCG); conditions: 250 g/h, evaluated after 13 days, percentage damage on five point scale; for ECHCG POST: post-emergence; for ECHCG PRE: pre-emergence
Method in brief: as §1

[2] = test system: Alopecurus myosuroides (ALOMY); conditions: 250 g/h, evaluated after 13 days, percentage damage on five point scale; for ALOMY PRE: pre-emergence; for ALOMY POST: post-emergence
Method in brief: as §1

Avena fatua (AVEFA) = conditions: 250 g/h, evaluated after 13 days, percentage damage on five point scale; for AVEFA POST: post-emergence; for AVEFA PRE: pre-emergence
Method in brief: as §1

Lolium perenne (LOLPE) = conditions: 250 g/h, evaluated after 13 days, percentage damage on five point scale; for LOLPE POST: post-emergence; for LOLPE PRE: pre-emergence
Method in brief: as §1

SMILES | SETFA POST (Setaria faberi (SETFA)) | SETFA PRE (Setaria faberi (SETFA)) | ECHCG POST [1] | ECHCG PRE [1] | ALOMY PRE [2] | AVEFA POST (Avena fatua (AVEFA)) | AVEFA PRE (Avena fatua (AVEFA)) | LOLPE POST (Lolium perenne (LOLPE)) | LOLPE PRE (Lolium perenne (LOLPE)) | ALOMY POST [2]
Cc1cc(-c2ccc(F)cc2)cc(C)c1C1C(=O)CC2(CCN(C(=O)C(C)(C)C)CC2)CC1=O [Compound A61] | 5 (5=80-100%) | 5 (5=80-100%) | 5 (5=80-100%) | 5 (5=80-100%) | 5 (5=80-100%) | 4 (4=60-79%) | 2 (2=20-39%) | 5 (5=80-100%) | 5 (5=80-100%) | 
Cc1cc(-c2ncc(F)cn2)cc(C)c1C1C(=O)CC2(CCN(C(=O)C(C)(C)C)CC2)CC1=O [Compound A40] | 5 (5=80-100%) | 5 (5=80-100%) | 5 (5=80-100%) | 5 (5=80-100%) | 5 (5=80-100%) | 5 (5=80-100%) | 5 (5=80-100%) | 5 (5=80-100%) | 5 (5=80-100%) | 5 (5=80-100%)
COc1cc(-c2ncc(F)cn2)cc(C)c1C1C(=O)CC2(CCN(OC)CC2)CC1=O [Compound A10] | 5 (5=80-100%) | 5 (5=80-100%) | 5 (5=80-100%) | 5 (5=80-100%) | 5 (5=80-100%) | 5 (5=80-100%) | 5 (5=80-100%) | 5 (5=80-100%) | 5 (5=80-100%) | 5 (5=80-100%)
CC(=O)N1CCC2(CC1)CC(=O)C(c1c(C)cc(-c3ccc(Cl)cn3)cc1C)C(=O)C2 [Compound A45] | 5 (5=80-100%) | 5 (5=80-100%) | 5 (5=80-100%) | 5 (5=80-100%) | 5 (5=80-100%) | 5 (5=80-100%) | 5 (5=80-100%) | 5 (5=80-100%) | 5 (5=80-100%) | 5 (5=80-100%)
COc1cc(-c2ccc(C#N)cn2)cc(C)c1C1C(=O)CC2(CCN(C(C)=O)CC2)CC1=O [Compound A18] | 5 (5=80-100%) | 5 (5=80-100%) | 5 (5=80-100%) | 5 (5=80-100%) | 4 (4=60-79%) | 5 (5=80-100%) | 5 (5=80-100%) | 5 (5=80-100%) | 5 (5=80-100%) | 5 (5=80-100%)
COc1cc(-c2ccc(F)cc2)cc(C)c1C1C(=O)CC2(CCN(C(C)=O)CC2)CC1=O [Compound A21] | 5 (5=80-100%) | 5 (5=80-100%) | 5 (5=80-100%) | 5 (5=80-100%) | 5 (5=80-100%) | 5 (5=80-100%) | 5 (5=80-100%) | 5 (5=80-100%) | 5 (5=80-100%) | 5 (5=80-100%)
CON1CCC2(CC1)CC(=O)C(c1c(C)cc(-c3ncc(F)cn3)cc1C)C(=O)C2 [Compound A2, 9-[4-(5-fluoropyrimidin-2-yl)-2,6-dimethyl-phenyl]-3-methoxy-3-azaspiro[5.5]undecane-8,10-dione] | 5 (5=80-100%) | 5 (5=80-100%) | 5 (5=80-100%) | 5 (5=80-100%) | 5 (5=80-100%) | 5 (5=80-100%) | 5 (5=80-100%) | 5 (5=80-100%) | 5 (5=80-100%) | 5 (5=80-100%)
Cc1cc(-c2ccc(C#N)cn2)cc(C)c1C1C(=O)CC2(CCN(C(=O)NC(=O)C(C)(C)C)CC2)CC1=O [Compound A27] | 5 (5=80-100%) | 5 (5=80-100%) |  | 5 (5=80-100%) | 4 (4=60-79%) | 1 (1=0-19%) | 2 (2=20-39%) | 5 (5=80-100%) | 4 (4=60-79%) | 5 (5=80-100%)
COCC(=O)N1CCC2(CC1)CC(=O)C(c1c(C)cc(-c3ncc(F)cn3)cc1C)C(=O)C2 [Compound A35] | 5 (5=80-100%) | 5 (5=80-100%) | 5 (5=80-100%) | 5 (5=80-100%) | 5 (5=80-100%) | 5 (5=80-100%) | 5 (5=80-100%) | 5 (5=80-100%) | 5 (5=80-100%) | 5 (5=80-100%)
Cc1cc(-c2ccc(C#N)cn2)cc(C)c1C1C(=O)CC2(CCN(C(=O)C(C)(C)C)CC2)CC1=O [Compound A30] | 5 (5=80-100%) | 5 (5=80-100%) | 5 (5=80-100%) | 5 (5=80-100%) | 5 (5=80-100%) | 5 (5=80-100%) | 3 (3=40-59%) | 5 (5=80-100%) | 5 (5=80-100%) | 5 (5=80-100%)
Cc1cc(-c2ccc(F)cc2)cc(C)c1C1C(=O)CC2(CCN(C(=O)c3ccccn3)CC2)CC1=O [Compound A55] | 5 (5=80-100%) | 5 (5=80-100%) | 5 (5=80-100%) | 5 (5=80-100%) | 5 (5=80-100%) | 5 (5=80-100%) | 5 (5=80-100%) | 5 (5=80-100%) | 5 (5=80-100%) | 
Cc1cc(-c2ncc(F)cn2)cc(C)c1C1C(=O)CC2(CCN(C(=O)NC(C)(C)C)CC2)CC1=O [Compound A36] | 5 (5=80-100%) | 5 (5=80-100%) |  | 5 (5=80-100%) | 5 (5=80-100%) | 5 (5=80-100%) | 5 (5=80-100%) | 5 (5=80-100%) | 5 (5=80-100%) | 5 (5=80-100%)
Cc1cc(-c2ncc(F)cn2)cc(C)c1C1C(=O)CC2(CCN(C(=O)NC(=O)c3ccccn3)CC2)CC1=O [Compound A41] | 5 (5=80-100%) | 5 (5=80-100%) | 5 (5=80-100%) | 4 (4=60-79%) | 3 (3=40-59%) | 5 (5=80-100%) | 3 (3=40-59%) | 5 (5=80-100%) | 3 (3=40-59%) | 5 (5=80-100%)
COc1cc(-c2ncc(F)cn2)cc(OC)c1C1C(=O)CC2(CCN(C(C)=O)CC2)CC1=O [Compound A15] | 5 (5=80-100%) | 5 (5=80-100%) | 5 (5=80-100%) | 5 (5=80-100%) | 5 (5=80-100%) | 5 (5=80-100%) | 5 (5=80-100%) | 5 (5=80-100%) | 5 (5=80-100%) | 5 (5=80-100%)
Cc1cc(-c2ncc(F)cn2)cc(C)c1C1C(=O)CC2(CCN(C(=O)NC(=O)C(C)(C)C)CC2)CC1=O [Compound A37] | 5 (5=80-100%) | 5 (5=80-100%) |  | 5 (5=80-100%) | 5 (5=80-100%) | 5 (5=80-100%) | 5 (5=80-100%) | 5 (5=80-100%) | 5 (5=80-100%) | 5 (5=80-100%)
